Values belong to the compound of their own block, whether it stands above or below them.
Legend:
[1] = Comparative active ester reactivity study with HOPO nucleophile; conditions: 1,2-HOPO 1 eq., 22±2° C.
Protocol: (§1) General Experimental Protocol for Comparative Active Ester Reactivity Study with HOPO or HOA Nucleophiles
(§2) To a 4 mL scintillation vial containing Compound A-E (in respective experiments; 1 eq.) was added a stir bar followed by 150 μL of HPLC grade acetonitrile. In another 4 mL scintillation vial containing a respective nucleophile (1 eq.) was added 280 μL HPLC grade water. The solutions were combined and allowed to stir at room temperature (22±2° C.) for 4 hours. Timed aliquots at time (T)=15, 30, 60, 120 and 240 minutes were taken and analyzed by HPLC-MS using elution method 1 (Table 1).

[2] = Comparative active ester reactivity study with HOA nucleophile (benzhydroxamic acid); conditions: Benzhydroxamic Acid 1 eq., 22±2° C.
Protocol: as §1, §2

[3] = Comparative active ester reactivity study with HOA nucleophile (N-hydroxy-N-methylbenzamide); conditions: N-Hydroxy-N-methylbenzamide 1 eq., 22±2° C.
Protocol: as §1, §2

[4] = Nucleophilic reactivity study with L-Lysine; conditions: L-Lysine 5 equiv, 15 min, 22±2° C.
Protocol: General Experimental Protocol for Nucleophilic Reactivity Study with L-Lysine
To a 4 mL scintillation vial containing Compound A-E (in respective experiments; 1 eq.) was added a stir bar followed by 70 μL of HPLC grade acetonitrile. In another 4 mL scintillation vial containing L-Lysine monohydrochloride (5 eq.) was added 130 μL HPLC grade water followed by diisopropylethylamine (5 eq.). The solutions were combined and allowed to stir at room temperature (22±2° C.). Timed aliquots at time (T)=15, 30, 60 and 120 minutes were taken and analyzed by HPLC-MS using elution method 1 (Table 2).

pH stability study = type: physicochemical; conditions: 20° C.
Protocol: To a 4 mL scintillation vial containing Compound A-E (in respective experiments; 0.8 mg) was added 4 mL of either a pH 3, pH 5 pH 7 or pH 9 buffer to create a 0.2 mg/mL solution. 2 mL of this solution was added to a 2 mL HPLC vial and placed in the auto sampler of an HPLC-MS at 20° C. Timed aliquots at time (T)=15, 30, 60, 120, 240 and 480 minutes were taken and analyzed by HPLC-MS using elution method 1 (Table 3). […]
pH 3 Buffer: Citric acid/Na2HPO4 (79.45 mL 0.1 M-citric acid and 20.55 mL 0.2-Na2HPO4) pH 5 Buffer: Citric acid/Na2HPO4 (48.50 mL 0.1 M-citric acid and 51.50 mL 0.2-Na2HPO4) pH 7 Buffer: Citric acid/Na2HPO4 (17.65 mL 0.1 M-citric acid and 82.35 mL 0.2-Na2HPO4) pH 9 Buffer: Sodium Carbonate/Sodium Bicarbonate (10 mL 0.1 M-Na2CO3 and 90 mL 0.1-NaHCO3)

[5] = Temperature stability study in H2O; type: physicochemical
Protocol: 20° C.: To a 4 mL scintillation vial containing Compound A-E (in respective experiments; 0.8 mg) was added 4 mL of HPLC grade water to create a 0.2 mg/mL solution. 2 mL of this solution was added to a 2 mL HPLC vial and placed in the auto sampler of an HPLC-MS at 20° C. Timed aliquots at time (T)=15, 30, 60, 120, 240 and 480 minutes were taken and analyzed by HPLC-MS using elution method 1 (Table 4).
50° C.: To a 4 mL scintillation vial containing Compound A-E (in respective experiments; 0.8 mg) was added a stir bar followed by 4 mL of HPLC grade water to create a 0.2 mg/mL solution. The vial was capped and allowed to stir in a 50° C. oil bath for 8 hours. Timed aliquots at time (T) =15, 30, 60, 120, 240 and 480 minutes were taken and analyzed by HPLC-MS using elution method 1 (Table 4).

DMSO stability study = type: physicochemical
Protocol: To a 4 mL scintillation vial containing Compound A-E (in respective experiments; 4 mg) was added a stir bar followed by 500 μL of anhydrous dimethyl sulfoxide and was allowed to stir at room temperature (22±2° C.) for 4 hours. Timed aliquots at time (T)=15, 30, 60, 120 and 240 minutes were taken, dissolved in water to achieve 2% DMSO composition and analyzed by HPLC-MS using elution method 1 (Table 5).

[6] = Stability of Compound J at pH = 2; type: physicochemical; conditions: pH 2, 20° C.
Protocol: To an HPLC vial was added a 0.2 mg/mL solution of Compound J dissolved in H2O (0.1% v/v TFA) at pH=2 and the stability was monitored by HPLC-MS at 20° C. over 16 hours. Timed aliquots at time (T)=0, 30, 60, 120, 180, 240, 480 and 960 minutes were taken and analyzed by HPLC-MS using elution method 4 at 214 nm (Table 9).

% Active Ester Remaining ([1]; 15 min): 15.47%
% Active Ester Remaining ([1]; 30 min): 12.28%
% Active Ester Remaining ([1]; 60 min): 11.06%
% Active Ester Remaining ([1]; 120 min): 7.15%
% Active Ester Remaining ([1]; 240 min): 3.69%
% Active Ester Remaining ([2]; 15 min): 1.13%
% Active Ester Remaining ([2]; 30 min): 0.85%
% Active Ester Remaining ([2]; 60 min): 0.67%
% Active Ester Remaining ([2]; 120 min): 0.49%
% Active Ester Remaining ([2]; 240 min): 0.35%
% Active Ester Remaining ([3]; 15 min): 32.07%
% Active Ester Remaining ([3]; 30 min): 20.77%
% Active Ester Remaining ([3]; 60 min): 11.58%
% Active Ester Remaining ([3]; 120 min): 6.52%
% Active Ester Remaining ([3]; 240 min): 4.21%
% Active Ester Remaining [4]: 0%
% Remaining (pH stability study; pH 3 buffer, 15 min): 80.40%
% Remaining (pH stability study; pH 3 buffer, 30 min): 59.68%
% Remaining (pH stability study; pH 3 buffer, 60 min): 44.51%
% Remaining (pH stability study; pH 3 buffer, 120 min): 26.16%
% Remaining (pH stability study; pH 3 buffer, 240 min): 8.98%
% Remaining (pH stability study; pH 3 buffer, 480 min): 1.00%
% Remaining (pH stability study; pH 5 buffer, 15 min): 85.59%
% Remaining (pH stability study; pH 5 buffer, 30 min): 52.98%
% Remaining (pH stability study; pH 5 buffer, 60 min): 33.12%
% Remaining (pH stability study; pH 5 buffer, 120 min): 13.81%
% Remaining (pH stability study; pH 5 buffer, 240 min): 2.33%
% Remaining (pH stability study; pH 5 buffer, 480 min): 0%
% Remaining (pH stability study; pH 7 buffer, 15 min): 86.24%
% Remaining (pH stability study; pH 7 buffer, 30 min): 44.91%
% Remaining (pH stability study; pH 7 buffer, 60 min): 19.80%
% Remaining (pH stability study; pH 7 buffer, 120 min): 4.02%
% Remaining (pH stability study; pH 7 buffer, 240 min): 0%
% Remaining (pH stability study; pH 9 buffer, 15 min): 6.98%
% Remaining (pH stability study; pH 9 buffer, 30 min): 1.20%
% Remaining (pH stability study; pH 9 buffer, 60 min): 0.74%
% Remaining (pH stability study; pH 9 buffer, 120 min): 0%
% Remaining ([5]; 20° C., 15 min): 87.24%
% Remaining ([5]; 20° C., 30 min): 78.45%
% Remaining ([5]; 20° C., 60 min): 70.03%
% Remaining ([5]; 20° C., 120 min): 54.46%
% Remaining ([5]; 20° C., 240 min): 24.99%
% Remaining ([5]; 20° C., 480 min): 4.50%
% Remaining ([5]; 50° C., 15 min): 72.20%
% Remaining ([5]; 50° C., 30 min): 47.31%
% Remaining ([5]; 50° C., 60 min): 20.75%
% Remaining ([5]; 50° C., 120 min): 3.50%
% Remaining ([5]; 50° C., 240 min): 0.10%
% Remaining ([5]; 50° C., 480 min): 0%
% Active Ester Remaining in DMSO at 22 ± 2° C. (DMSO stability study; 15 min): 97.29%
% Active Ester Remaining in DMSO at 22 ± 2° C. (DMSO stability study; 30 min): 97.13%
% Active Ester Remaining in DMSO at 22 ± 2° C. (DMSO stability study; 60 min): 96.83%
% Active Ester Remaining in DMSO at 22 ± 2° C. (DMSO stability study; 120 min): 94.53%
% Active Ester Remaining in DMSO at 22 ± 2° C. (DMSO stability study; 240 min): 91.57%
Structure (SMILES): O=C(CCc1cccnc1)ON1C(=O)CCC1=O [Compound E, 2,5-Dioxo-1-pyrrolidinyl 3-pyridinepropanoate]

Structure (SMILES): CC(=O)N(O)CCCCCNC(=O)CCC(=O)N(O)CCCCCNC(=O)CCC(=O)N(O)CCCCCNC(=O)CCOCCOCCOCCOCCOCCOCCOCCOCCOCCOCCOCCOCCC(=O)Oc1c(Cl)cccc1Cl [Compound J, 2,6-Dichlorophenyl 1-{[5-(N-hydroxy-3-{8 5-(N-hydroxy-3-{[5-(N-hydroxyacetamido)pentyl]carbamoyl}propanamido)pentyl]carbamoyl}propanamido)pentylic carbamoyl}-3,6,9,12,15,18,21,24,27,30,33,36-dodecaoxanonatriacontan-39-oate]
% Compound J Remaining ([6]; 0 min): 97.49%
% Compound J Remaining ([6]; 30 min): 97.21%
% Compound J Remaining ([6]; 60 min): 96.67%
% Compound J Remaining ([6]; 120 min): 96.11%
% Compound J Remaining ([6]; 180 min): 96.14%
% Compound J Remaining ([6]; 240 min): 94.83%
% Compound J Remaining ([6]; 480 min): 94.39%
% Compound J Remaining ([6]; 960 min): 91.48%

Reference: US20240139333A1, “2,6-DICHLOROPHENYL ESTER COMPOUNDS AND USE THEREOF” (Fusion Pharmaceuticals Inc., priority 2021, published 2024)
